Results as given in patent US20020086832A1, “Caspase inhibitors for inhibiting blood cell proliferation and for treating autoimmune diseases” (APOTECH RESEARCH AND DEVELOPMENT LTD., priority 1999, published 2002).
“Also recorded” adds a separate entry of the source.

How the values were obtained:
Assay type in all cases: cell-based
[1] = system: human peripheral blood lymphocytes; test: Proliferation of human PBL/T-cells stimulated with anti-CD3 antibodies, [3H] thymidine incorporation; details: for inhibition of the stimulation (cell proliferation) brought about by the anti-CD3: human PBL, inhibitor 25 to 100 μM, four-day cultivation; for inhibition of the stimulation (cell proliferation) brought about by the anti-CD3 / effect on cell proliferation (cpm, [3H] thymidine incorporation): FIG. 1; for effect on cell proliferation (cpm, [3H] thymidine incorporation): human T-cells, 10 μg/ml soluble anti-CD3 antibodies, inhibitor concentrations above 25 μM
Protocol: For this purpose the T-cells were stimulated with 10 μg/ml soluble anti-CD3 antibodies in the presence of various caspase inhibitors. […] Plotted, the proliferation of the stimulated T-cells (cpm, measured by [^3H] thymidine incorporation) is found as a function of increasing concentrations of caspase inhibitors.
This means that the activity of caspase-8 is significant for the IL-2 production of T-cells. In the experiments on which FIG. 5 is based, PBL were activated with 10 μg/ml soluble anti-CD3 antibody in the presence or absence of zVAD-fink (50 μM) and in the presence of anti-CD3 antibody zVAD-fmk and 500 U/ml recombinant human IL-2, respectively.
For this purpose, the latter were prepared through Ficoll-Hypaque centrifugation. The cells (5×10^4 cells per well) were then cultivated on 96-well plates in the presence of different caspase inhibitors or, for control purposes, in their absence. The concentration of the caspase inhibitors was varied in a range of 25 to 100 μM. Finally, the cells were stimulated through anti-CD3 antibodies (TR66) or through a combined stimulation with anti-CD3 antibodies and soluble recombinant FasL with or without anti-FLAG sequence antibodies 1 μg/ml.
Cell proliferation was measured during the last 18 hours of the four-day cultivation period. The measuring variable for cell proliferation was the incorporation of [^3H] thymidine into the proliferating cells.

[2] = system: IL-2 production of T-lymphocytes; test: IL-2 concentration in supernatants of stimulated T-lymphocytes/PBL, CTLL bioassay; details: FIG. 4; for suppression of IL-2 production: anti-CD3 antibody stimulation (3 μg/ml immobilized), inhibitors 50 µM, supernatants after 24 hours; for IL-2 activity in supernatants / T-cell proliferation as reflected by IL-2 concentration in supernatants: immobilized anti-CD3 antibody (3 μg/ml) with or without crosslinked FasL (50 ng/ml)
Protocol: FIG. 4 illustrates the correlation of IL-2 expression and the use of caspase inhibitors using a bar diagram. […] The findings shown in FIG. 4 are based on experiments in which 106 ^6 PBL/ml were cultivated with immobilized anti-CD3 antibody (3 μg/ml) and FasL ([…]) in the presence or absence of the caspase inhibitors referred to above (50 µM). The supernatants were removed after 24 hours and examined with the help of a CTLL bioassay for their IL-2 concentration.
For this purpose, T-lymphocytes (10^6/ml) were stimulated with immobilized antiCD3 antibody (3 μg/ml) with or without crosslinked FasL (50 ng/ml). The supernatants of these preparations with a caspase inhibitor or without a caspase inhibitor as control were removed after the stimulation period and their respective IL-2 concentration was measured using a CTTL bioassay. The IL-2 concentration in the supernatants reflects the T-cell proliferation.

caspase-8 = target: T1, caspase-8 (Homo sapiens, UniProt Q14790); test: Western blot of procaspase-8 cleavage in lysates of stimulated human T-lymphocytes; details: anti-CD3 antibody and crosslinked sFasL, 6 hours, IETD-fmk 50 μM; FIG. 6
T1 construct: procaspase-8, 55 kDa fraction, or proteolytically cleaved, active caspase-8, 26 kDa fraction, respectively; endogenous in cells; host or cells: human T-lymphocytes stimulated with anti-CD3 antibody and crosslinked sFasL
T1 sequence (Q14790 whole entry): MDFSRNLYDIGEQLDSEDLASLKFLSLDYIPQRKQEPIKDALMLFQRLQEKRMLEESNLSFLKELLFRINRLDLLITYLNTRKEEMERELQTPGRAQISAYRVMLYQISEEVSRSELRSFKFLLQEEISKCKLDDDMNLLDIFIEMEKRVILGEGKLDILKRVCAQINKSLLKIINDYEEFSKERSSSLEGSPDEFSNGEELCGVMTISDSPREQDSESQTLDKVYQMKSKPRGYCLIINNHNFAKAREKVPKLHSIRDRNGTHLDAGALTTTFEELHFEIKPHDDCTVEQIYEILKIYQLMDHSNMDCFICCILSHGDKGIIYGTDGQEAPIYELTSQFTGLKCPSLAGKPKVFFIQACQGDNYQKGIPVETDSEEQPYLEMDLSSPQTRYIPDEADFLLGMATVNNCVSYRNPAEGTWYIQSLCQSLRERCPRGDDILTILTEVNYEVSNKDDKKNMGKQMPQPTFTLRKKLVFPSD
Protocol: FIG. 6 provides a Western blot. Human T-cells were cultivated either without stimulation (control), with soluble anti-CD3 antibody alone (3 μg/ml), or with anti-CD3 antibody and sFasL (50 ng/ml) which, as described above, is crosslinked via its FLAG sequence. The cell lysates were examined in accordance with the times shown in FIG. 6, with regard to the expression of procaspase-8 or of cleavage products of the procaspase-8.
In a further experimental approach, T-cells were stimulated with a combination of anti-CD3 antibodies and FasL for a period of 6 hours, namely in the presence of 50 µM of the caspase-8 inhibitor IETD-fmk.
After 0, 2, 4, 6 and 22 hours, cells were taken from the different preparations and lysated. The cell lysates were examined with the Western blot technique with respect to their caspase-8 activity (procaspase-8, 55 kDa fraction, or proteolytically cleaved, active caspase-8, 26 kDa fraction, respectively).

| Substance | cell proliferation with inhibitor plus exogenous recombinant human IL-2 ([1]; PBL, 10 μg/ml soluble anti-CD3 antibody, zVAD-fmk 50 μM and 500 U/ml IL-2, FIG. 5) | number of cells as against the control ([1]; PBL, 10 μg/ml soluble anti-CD3 antibody, zVAD-fmk 50 μM, FIG. 5) | inhibition of the stimulation (cell proliferation) brought about by the anti-CD3 [1] | effect on cell proliferation (cpm, [3H] thymidine incorporation) [1] | suppression of IL-2 production [2] | IL-2 activity in supernatants [2] | T-cell proliferation as reflected by IL-2 concentration in supernatants [2] | active 26 kDa caspase-8 fraction/band in Western blot (caspase-8) | proteolytic cleavage of caspase-8 during stimulation (caspase-8) |
| --- | --- | --- | --- | --- | --- | --- | --- | --- | --- |
| zVAD-fmk | increases dramatically | clear reduction | complete inhibition; also recorded: partial inhibition | clear inhibiting effect | particularly effective | only weak | blocks |  |  |
| IETD-fmk |  |  | complete inhibition | clear inhibiting effect | particularly effective | only weak | blocks | cannot be detected; also recorded: does not lead to any 26 kDa band being detected | effectively blocked |
